Where “and” joins values, the source holds several entries; their conditions need not be identical. Equal values may be shown once.
What was measured:
[1] = compared with DHEA; cited from earlier work
[2] = injection (i.m.) in man; cited from earlier work
[3] = Weight gain, food consumption, fat pad and alpha-ET blood level in normal rats fed steroid in diet for three weeks; format: in vivo, Sprague-Dawley rats; conditions: for FOOD CONSUMPTION: 0.367% in diet (dose from method)
Description: All of the above considerations make ET-dione not only suitable but preferred in the treatment of diabetes, obesity and blood suppressive disorders such as aplastic anemia.
Food consumption and body weight were measured weekly. Blood samples were taken at the end of the study for assay of alpha-ET by RIA and measurement of serum total cholesterol, HDL-cholesterol and triglycerides. Liver weight (absolute and % of body weight), total cholesterol, % of esterified cholesterol and triglycerides in the liver were also determined. In addition, epididymal fat pad weights were measured.

[4] = Second study: body weight gain and food consumption in rats on higher-fat diet with steroid; format: in vivo, Sprague-Dawley rats; conditions: for FOOD CONSUMPTION: Av.Wks 1 - 4 (control 23.4)
Description: A second study was carried out on male Sprague-Dawley rats with initial starting weight of 272 ± 5 gms. […] On the last day of the study the animals were dosed with approximately 1 micro Ci of ^3H labeled material (Amersham) corresponding to the treatment they had received. Groups of three animals- were sacrificed at 1 hour, 4 hours and 12 hours after dosing, and the adrenals, gonads, liver, epididymal fat pads, and blood collected for analysis. Urine and feces were also collected during the post-tracer dosing period.

[5] = Absorption and blood level profiles after oral suspensions, three-way crossover; serum alpha-ET by RIA; format: in vivo, human; conditions: 200 mg oral suspension, at 4 hours past administration
Description: Each subject received all three drugs in randomized order with a one-week wash-out period between doses. Following an overnight fast, subjects received 200 mg of test drug suspended in approximately 6 oz of apple juice. Blood samples were drawn immediately prior to drug administration and at 15 minutes, 30 minutes, 1, 2, 4, 8, 12 and 24 hours.

In the case of C[C@]12CC[C@H](O)C[C@H]1CC[C@@H]1[C@@H]2CC[C@]2(C)C(=O)CC[C@@H]12 [Beta-ET, 5-beta-androstan-3-beta-ol-17-one], the “effectiveness in preventing the development of diabetes” value [1] is given as “four times more effective than DHEA” and the pyrogenic effect [2] is given as “little pyrogenic effect”.
With C[C@]12CCC(=O)C[C@H]1CC[C@@H]1[C@@H]2CC[C@]2(C)C(=O)CC[C@@H]12 [ET-dione, 5-beta-androstanedione] the “% W vs Control Day 21” value ([3]; 0.367% in diet) was -16.6%, the “FOOD CONSUMPTION” value ([3]; Average, mean ± S.E. (control 25.6 ± 0.6), significantly different from control (p < 0.05)) was 23.4 ± 0.6 g/rat/day and the “FOOD CONSUMPTION” value ([3]; week 1, mean ± S.E. (control 26.8 ± 0.8)) was 23.0 ± 0.6 g/rat/day. For the same compound, the “FOOD CONSUMPTION” value ([3]; week 2, mean ± S.E. (control 24.9 ± 0.6)) was 24.6 ± 0.5 g/rat/day, the “FOOD CONSUMPTION” value ([3]; week 3, mean ± S.E. (control […] ± 0.6)) was 22.6 ± 0.5 g/rat/day and the “Weight” value ([3]; 0.367% in diet, Day 0, mean ± S.E.) was 260 ± 3 g. The “W(g) (weight gain)” value ([3]; 0.367% in diet, Day 7 (control 48)) was 38 g, the “Weight” value ([3]; 0.367% in diet, Day 7, mean ± S.E. (control 308 ± 5)) was 298 ± 2 g and the “W(g) (weight gain)” value ([3]; 0.367% in diet, Day 14 (control 94)) was 81 g. For the same compound, the “Weight” value ([3]; 0.367% in diet, Day 14, mean ± S.E. (control 354 ± 6)) was 341 ± 3 g, the “W(g) (weight gain)” value ([3]; 0.367% in diet, Day 21 (control 121), significantly different from control (p < .05)) was 101 g and 101+ g and the “Weight” value ([3]; 0.367% in diet, Day 21, mean ± S.E. (control 381 ± 7)) was 361 ± 3 g. For the same compound, the “Fat Pad as % of Body Wt” value ([3]; 0.367% in diet, three weeks (control 1.02 ± 0.08)) was 0.97 ± 0.07%, the “Fat Pad Wt” value ([3]; epididymal fat pad, 0.367% in diet, three weeks (control 3.88 ± 0.29)) was 3.50 ± 0.26 g and the “% W vs Control Day 28” value ([4]; 0.4% in diet) was -18.6%. The “FOOD CONSUMPTION” value ([4]; 0.4% in diet) was 22.0 g/day, the “BODY WEIGHT GAINS” value ([4]; 0.4% in diet, Day 7 (control 56)) was 44 and the “BODY WEIGHT GAINS” value ([4]; 0.4% in diet, Day 14 (control 109)) was 89. For the same compound, the “BODY WEIGHT GAINS” value ([4]; 0.4% in diet, Day 21 (control 145)) was 117, the “BODY WEIGHT GAINS” value ([4]; 0.4% in diet, Day 28 (control 183)) was 149 and the “% W vs Control Day 28” value ([4]; 0.8% in diet) was -21.3%. For the same compound, the “FOOD CONSUMPTION” value ([4]; 0.8% in diet) was 20.6 g/day, the “BODY WEIGHT GAINS” value ([4]; 0.8% in diet, Day 7 (control 56)) was 34 and the “BODY WEIGHT GAINS” value ([4]; 0.8% in diet, Day 14 (control 109)) was 83. The “BODY WEIGHT GAINS” value ([4]; 0.8% in diet, Day 21 (control 145)) was 112, the “BODY WEIGHT GAINS” value ([4]; 0.8% in diet, Day 28 (control 183)) was 144 and the “effectiveness in reducing weight gain compared with alpha-ET” value ([4]; at all concentrations tested) was “almost twice as effective as alpha-ET”. The “free alpha-ET levels compared with alpha-ET or beta-ET administration” value [5] was “significantly higher”.

Source: patent EP0261891A2, “Pharmaceutical compositions containing etiochiolandione” (Progenics, Inc., priority 1986, dated 1988)
